Experimental data from the CheMixHub viscosity set.

Assay: xn = mol fraction of the nth substance listed

CCCCCCCCn1cc[n+](C)c1.[Cl-] + CCCCCCCC[n+]1ccn(C)c1.F[B-](F)(F)F
101 kPa
Conditions | viscosity [mPa·s]
303.15 K, x1 = 0.2 | 529.1
308.15 K, x1 = 0.2 | 381.3
308.15 K, x1 = 0.4 | 756.6
313.15 K, x1 = 0.4 | 534.9
318.15 K, x1 = 0.4 | 386.7
318.15 K, x1 = 0.6 | 735.5
323.15 K, x1 = 0.6 | 523

CCOc1ccccc1 + CCCCCCCO
viscosity [mPa·s], 101.3 kPa
Conditions | x1 = 0.0989 | x1 = 0.1998 | x1 = 0.2988 | x1 = 0.4017 | x1 = 0.5011 | x1 = 0.6101 | x1 = 0.7004 | x1 = 0.8009 | x1 = 0.9031
293.15 K | 5.488 | 4.237 | 3.317 | 2.62 | 2.147 | 1.814 | 1.606 | 1.47 | 1.388
298.15 K | 4.761 | 3.758 | 2.978 | 2.379 | 1.916 | 1.583 | 1.412 | 1.295 | 1.252
308.15 K | 3.737 | 2.957 | 2.382 | 1.91 | 1.58 | 1.318 | 1.171 | 1.066 | 1.001
318.15 K | 2.785 | 2.261 | 1.846 | 1.517 | 1.28 | 1.083 | 0.9726 | 0.8947 | 0.8422

COC(=O)CC(C)=O + CCCCCCCO
viscosity [mPa·s], 101.33 kPa
Conditions | x1 = 0.1016 | x1 = 0.2071 | x1 = 0.3081 | x1 = 0.4096 | x1 = 0.5099 | x1 = 0.6072 | x1 = 0.7071 | x1 = 0.8059 | x1 = 0.9033
298.15 K | 4.066 | 3.167 | 2.651 | 2.278 | 2.012 | 1.842 | 1.663 | 1.546 | 1.512
303.15 K | 3.465 | 2.734 | 2.298 | 1.981 | 1.754 | 1.624 | 1.485 | 1.393 | 1.366
308.15 K | 2.97 | 2.357 | 1.998 | 1.733 | 1.545 | 1.452 | 1.337 | 1.264 | 1.245

CCOC(C)=O + CCCCCCO
viscosity [mPa·s], 101.33 kPa
Conditions | x1 = 0.1142 | x1 = 0.2247 | x1 = 0.332 | x1 = 0.436 | x1 = 0.537 | x1 = 0.635 | x1 = 0.7301 | x1 = 0.8227 | x1 = 0.9125
298.15 K | 2.832 | 2.006 | 1.472 | 1.128 | 0.9 | 0.736 | 0.618 | 0.539 | 0.47
303.15 K | 2.481 | 1.775 | 1.334 | 1.027 | 0.824 | 0.692 | 0.574 | 0.506 | 0.448
308.15 K | 2.181 | 1.582 | 1.2 | 0.942 | 0.76 | 0.591 | 0.541 | 0.475 | 0.419

CCOc1ccccc1 + CCCCCCO
viscosity [mPa·s], 101.3 kPa
Conditions | x1 = 0.1009 | x1 = 0.1998 | x1 = 0.2997 | x1 = 0.3996 | x1 = 0.5031 | x1 = 0.6005 | x1 = 0.7003 | x1 = 0.8012 | x1 = 0.9001
293.15 K | 4.148 | 3.239 | 2.559 | 2.075 | 1.745 | 1.557 | 1.458 | 1.407 | 1.38
298.15 K | 3.444 | 2.764 | 2.253 | 1.872 | 1.586 | 1.392 | 1.293 | 1.246 | 1.237
308.15 K | 2.831 | 2.252 | 1.807 | 1.482 | 1.248 | 1.103 | 1.033 | 1.001 | 0.9927
318.15 K | 2.142 | 1.72 | 1.388 | 1.153 | 0.9975 | 0.9133 | 0.8619 | 0.8367 | 0.8214

COC(=O)CC(C)=O + CCCCCCO
viscosity [mPa·s], 101.33 kPa
Conditions | x1 = 0.1036 | x1 = 0.204 | x1 = 0.3064 | x1 = 0.4075 | x1 = 0.5096 | x1 = 0.6081 | x1 = 0.7063 | x1 = 0.806 | x1 = 0.9023
298.15 K | 3.185 | 2.588 | 2.204 | 1.947 | 1.749 | 1.609 | 1.521 | 1.473 | 1.478
303.15 K | 2.76 | 2.257 | 1.932 | 1.72 | 1.547 | 1.442 | 1.364 | 1.33 | 1.34
308.15 K | 2.409 | 1.989 | 1.711 | 1.527 | 1.387 | 1.302 | 1.238 | 1.211 | 1.222

CCOC(C)=O + CCCCCO
viscosity [mPa·s], 101.33 kPa
Conditions | x1 = 0.1 | x1 = 0.2 | x1 = 0.3 | x1 = 0.4001 | x1 = 0.5001 | x1 = 0.6036 | x1 = 0.7001 | x1 = 0.8001 | x1 = 0.9
298.15 K | 2.349 | 1.693 | 1.282 | 1.011 | 0.829 | – | 0.6 | 0.521 | 0.472
303.15 K | 2.079 | 1.53 | 1.161 | 0.924 | 0.766 | 0.644 | 0.561 | 0.486 | 0.446
308.15 K | 1.843 | 1.367 | 1.053 | 0.848 | 0.681 | 0.599 | 0.525 | 0.459 | 0.392
